Structures are written as SMILES. Where two headings read alike, the source gives them in different places.

One assay deals with T1, mTOR (Homo sapiens, UniProt P42345).
T1 construct: endogenous in cells; host or cells: Jurkat, clone E6-1 (ATCC TIB-152) cell lysate
Nature of the assay: mTOR kinobeads assay (competitive binding in Jurkat cell lysate, immunodetection). A digest of the protocol:
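IC50 derived from dose-response curves of mTOR captured on immobilized phenylmorpholin-chromen beads, detected by antibody dot blot with infrared fluorescence.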

The target of a further assay is T2, PI3Kalpha (PI3Ka) (Homo sapiens, UniProt P42336).
T2 construct: endogenous in cells; host or cells: cell lysate
Nature of the assay: kinobeads assay, PI3Kalpha. It counts as binding. Particulars: Further Kinobeads Data. The procedure, abridged:
(§1)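 Cell lysate aliquots are incubated with compound over a concentration range and with an affinity matrix of immobilized phenylmorpholin-chromen ligand. Beads are then removed, bound proteins eluted, and each kinase is quantified by multiplexed immunodetection to derive IC50 values.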

The target in the next assay is T3, PI3 Kbeta (PI3 Kb) (Homo sapiens, UniProt P42338).
T3 construct: endogenous in cells; host or cells: cell lysate
The assay can be described thus: kinobeads assay, PI3Kbeta. The class given is binding. Particulars: Further Kinobeads Data; read-out: PI3Kb. The procedure, abridged: as §1

In a further assay the target is T4, PI3 Kgamma (PI3 Kg) (Homo sapiens, UniProt P48736).
T4 construct: endogenous in cells; host or cells: cell lysate
Nature of the assay: kinobeads assay, PI3Kgamma. It counts as binding. Particulars: Further Kinobeads Data; read-out: PI3Kg. A digest of the protocol: as §1

Setting [1] is: Further Kinobeads Data, read-out: mTor.
Setting [2] is: kinobeads assay, Table 4, read-out: Inhibition values (IC50) mTor.
Setting [3] is: kinobeads assay, Table 6, read-out: Inhibition values (IC50) mTOR.

T2 sequence (P42336 whole entry): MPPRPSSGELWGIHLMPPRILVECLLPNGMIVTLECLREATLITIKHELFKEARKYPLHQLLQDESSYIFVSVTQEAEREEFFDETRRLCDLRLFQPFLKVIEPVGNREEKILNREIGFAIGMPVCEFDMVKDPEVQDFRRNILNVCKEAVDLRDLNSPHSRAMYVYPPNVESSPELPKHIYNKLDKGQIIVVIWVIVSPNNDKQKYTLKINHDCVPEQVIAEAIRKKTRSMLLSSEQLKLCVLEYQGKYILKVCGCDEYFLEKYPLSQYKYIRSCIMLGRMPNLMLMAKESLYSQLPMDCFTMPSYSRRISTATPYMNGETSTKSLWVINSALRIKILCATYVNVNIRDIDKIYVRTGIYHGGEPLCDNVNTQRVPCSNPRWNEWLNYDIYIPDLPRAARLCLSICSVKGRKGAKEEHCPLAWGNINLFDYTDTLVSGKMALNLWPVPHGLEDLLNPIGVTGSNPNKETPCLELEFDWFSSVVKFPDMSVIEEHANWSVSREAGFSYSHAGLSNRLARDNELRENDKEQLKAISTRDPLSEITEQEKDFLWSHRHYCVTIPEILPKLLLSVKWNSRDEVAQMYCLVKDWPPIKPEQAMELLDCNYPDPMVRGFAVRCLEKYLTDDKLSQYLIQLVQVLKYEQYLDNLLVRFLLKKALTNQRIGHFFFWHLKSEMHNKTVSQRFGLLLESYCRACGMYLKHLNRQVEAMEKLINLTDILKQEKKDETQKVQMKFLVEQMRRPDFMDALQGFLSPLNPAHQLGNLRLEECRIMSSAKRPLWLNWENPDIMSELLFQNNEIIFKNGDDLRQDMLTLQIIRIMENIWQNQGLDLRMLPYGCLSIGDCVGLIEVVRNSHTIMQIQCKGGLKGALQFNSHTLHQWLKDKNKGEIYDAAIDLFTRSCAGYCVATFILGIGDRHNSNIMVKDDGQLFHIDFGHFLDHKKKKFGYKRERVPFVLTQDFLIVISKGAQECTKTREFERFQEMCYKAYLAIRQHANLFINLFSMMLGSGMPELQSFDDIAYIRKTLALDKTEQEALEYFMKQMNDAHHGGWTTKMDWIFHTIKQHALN
T2 sequence (P27986 whole entry partner): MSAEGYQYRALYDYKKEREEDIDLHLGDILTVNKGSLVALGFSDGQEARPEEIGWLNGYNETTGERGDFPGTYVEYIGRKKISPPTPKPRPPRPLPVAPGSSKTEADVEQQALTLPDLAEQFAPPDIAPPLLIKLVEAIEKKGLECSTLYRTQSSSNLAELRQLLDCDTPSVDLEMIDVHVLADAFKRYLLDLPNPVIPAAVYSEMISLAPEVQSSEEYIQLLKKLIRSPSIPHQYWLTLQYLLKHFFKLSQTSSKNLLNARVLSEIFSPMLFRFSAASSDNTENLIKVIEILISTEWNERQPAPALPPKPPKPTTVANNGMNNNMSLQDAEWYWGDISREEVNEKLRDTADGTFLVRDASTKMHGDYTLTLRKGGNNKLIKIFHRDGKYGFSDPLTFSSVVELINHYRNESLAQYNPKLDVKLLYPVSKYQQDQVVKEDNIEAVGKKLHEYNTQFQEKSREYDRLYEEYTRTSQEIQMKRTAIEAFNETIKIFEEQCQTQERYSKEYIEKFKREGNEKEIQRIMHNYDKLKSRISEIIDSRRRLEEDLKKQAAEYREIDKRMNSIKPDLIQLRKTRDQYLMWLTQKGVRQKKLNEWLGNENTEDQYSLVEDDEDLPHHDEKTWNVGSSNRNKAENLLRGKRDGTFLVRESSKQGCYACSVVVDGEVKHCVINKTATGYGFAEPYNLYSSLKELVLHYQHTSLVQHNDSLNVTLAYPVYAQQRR
T3 sequence (P42338 whole entry): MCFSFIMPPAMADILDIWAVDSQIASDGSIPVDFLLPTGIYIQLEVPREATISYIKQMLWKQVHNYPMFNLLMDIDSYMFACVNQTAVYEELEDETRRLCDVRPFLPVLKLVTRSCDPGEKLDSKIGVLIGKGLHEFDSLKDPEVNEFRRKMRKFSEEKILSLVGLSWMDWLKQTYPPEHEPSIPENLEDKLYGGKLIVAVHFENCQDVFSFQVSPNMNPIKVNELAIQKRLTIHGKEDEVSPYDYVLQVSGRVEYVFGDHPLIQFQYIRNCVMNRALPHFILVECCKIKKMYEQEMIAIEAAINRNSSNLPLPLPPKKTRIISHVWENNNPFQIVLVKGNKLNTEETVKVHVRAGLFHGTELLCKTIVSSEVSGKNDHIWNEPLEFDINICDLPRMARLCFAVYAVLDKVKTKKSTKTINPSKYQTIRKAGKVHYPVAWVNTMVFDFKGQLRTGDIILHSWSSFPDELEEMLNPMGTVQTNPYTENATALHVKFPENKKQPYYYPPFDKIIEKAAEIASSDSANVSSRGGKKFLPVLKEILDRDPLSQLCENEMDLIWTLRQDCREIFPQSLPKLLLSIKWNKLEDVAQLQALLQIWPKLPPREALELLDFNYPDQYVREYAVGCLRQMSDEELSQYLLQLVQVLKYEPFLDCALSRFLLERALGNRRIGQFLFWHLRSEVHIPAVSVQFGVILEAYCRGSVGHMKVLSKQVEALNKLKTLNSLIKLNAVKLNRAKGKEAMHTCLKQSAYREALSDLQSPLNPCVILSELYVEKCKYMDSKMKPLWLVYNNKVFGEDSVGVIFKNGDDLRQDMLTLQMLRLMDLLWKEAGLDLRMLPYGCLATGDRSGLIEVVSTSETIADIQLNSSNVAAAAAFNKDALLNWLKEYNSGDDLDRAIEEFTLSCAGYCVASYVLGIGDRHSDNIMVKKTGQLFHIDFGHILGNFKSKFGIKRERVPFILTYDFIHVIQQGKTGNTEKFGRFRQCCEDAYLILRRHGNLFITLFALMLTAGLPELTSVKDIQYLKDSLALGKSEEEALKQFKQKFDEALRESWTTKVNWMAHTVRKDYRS
T3 sequence (P27986 whole entry partner): as the sequence (P27986 whole entry partner) above
T4 sequence (P48736 whole entry): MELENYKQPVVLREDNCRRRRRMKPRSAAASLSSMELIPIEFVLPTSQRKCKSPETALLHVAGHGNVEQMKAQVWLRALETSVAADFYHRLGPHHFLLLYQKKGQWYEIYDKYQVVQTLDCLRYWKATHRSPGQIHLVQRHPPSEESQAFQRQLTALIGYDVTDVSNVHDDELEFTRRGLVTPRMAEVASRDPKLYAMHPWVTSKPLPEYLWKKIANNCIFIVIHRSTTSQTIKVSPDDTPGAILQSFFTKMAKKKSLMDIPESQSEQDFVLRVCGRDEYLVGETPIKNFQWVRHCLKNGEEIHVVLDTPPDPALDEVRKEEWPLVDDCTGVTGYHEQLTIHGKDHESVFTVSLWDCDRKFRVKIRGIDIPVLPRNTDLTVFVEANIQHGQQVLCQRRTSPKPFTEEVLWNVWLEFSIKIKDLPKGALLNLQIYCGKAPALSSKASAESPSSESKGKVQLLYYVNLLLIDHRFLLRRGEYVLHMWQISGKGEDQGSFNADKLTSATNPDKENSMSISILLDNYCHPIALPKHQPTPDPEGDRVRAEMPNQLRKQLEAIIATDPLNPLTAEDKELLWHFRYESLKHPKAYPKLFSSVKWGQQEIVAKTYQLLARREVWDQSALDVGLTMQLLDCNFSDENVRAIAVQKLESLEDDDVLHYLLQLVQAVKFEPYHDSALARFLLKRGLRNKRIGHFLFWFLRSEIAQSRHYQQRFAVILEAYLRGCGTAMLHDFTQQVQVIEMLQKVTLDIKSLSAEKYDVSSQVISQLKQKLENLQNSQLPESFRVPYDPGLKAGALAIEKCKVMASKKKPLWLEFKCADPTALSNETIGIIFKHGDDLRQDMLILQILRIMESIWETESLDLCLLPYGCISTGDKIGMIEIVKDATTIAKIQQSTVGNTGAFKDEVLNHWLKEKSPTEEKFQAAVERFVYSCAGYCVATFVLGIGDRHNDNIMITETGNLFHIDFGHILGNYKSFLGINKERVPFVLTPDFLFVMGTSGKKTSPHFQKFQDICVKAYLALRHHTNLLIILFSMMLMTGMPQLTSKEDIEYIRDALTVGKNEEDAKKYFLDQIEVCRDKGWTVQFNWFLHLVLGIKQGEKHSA

With `CC(C)C(=O)N1Cc2nc(-c3ccc(NC(=O)NC4CC4)cc3F)nc(N3CCOC[C@@H]3C)c2C1` [Example 174, (S)-1-cyclopropyl-3-(3-fluoro-4-(6-isobutyryl-4-(3-methylmorpholino)-6,7-dihydro-5H-pyrrolo[3,4-d]pyrimidin-2-yl)phenyl)urea], the values for the IC50 on mTOR (setting [1]), on PI3 Kbeta (PI3 Kb) and at PI3 Kgamma (PI3 Kg) were below 100 nM, above 10000 nM and above 10000 nM, respectively. Further, the PI3Ka result at PI3Kalpha (PI3Ka) is recorded as “D (D >10 μM)”.

Take `CCNC(=O)Nc1ccc(-c2nc3c(c(N4CCOC[C@@H]4C)n2)CN(C(=O)OC)C3)c(F)c1` [Example 152, (S)-methyl 2-(4-(3-ethylureido)-2-fluorophenyl)-4-(3-methylmorpholino)-5H-pyrrolo[3,4-d]pyrimidine-6-(7H)-carboxylate]: the results for the IC50 at mTOR (setting [1]), on PI3 Kbeta (PI3 Kb) and at PI3 Kgamma (PI3 Kg) were 100 to 1000 nM, above 10000 nM and above 10000 nM, respectively. Moreover, the PI3Ka entry at PI3Kalpha (PI3Ka) is reported as “D (D >10 μM)”.

Regarding `C[C@H]1COCCN1c1nc(-c2ccc(NC(=O)NC3CC3)cc2)nc2c1CN(C(=O)C1CC1)C2` [Example 17, (S)-1-(4-(6-(cyclopropanecarbonyl)-4-(3-methylmorpholino)-6,7-dihydro-5H-pyrrolo[3,4-d]pyrimidin-2-yl)phenyl)-3-cyclopropylurea], the IC50 at mTOR (setting [2]) and at mTOR (setting [3]) was below 100 nM throughout.

Consider `CNC(=O)Nc1ccc(-c2nc3c(c(N4CCOC[C@@H]4C)n2)CN(CC2CC2)C3)cc1` [Example 47, (S)-1-(4-(6-(cyclopropylmethyl)-4-(3-methylmorpholino)-6,7-dihydro-5H-pyrrolo[3,4-d]pyrimidin-2-yl)phenyl)-3-methylurea], for which the IC50 on mTOR (setting [2]) and on mTOR (setting [3]) was below 100 nM each time.

Take `COC(=O)N1Cc2nc(-c3ccc(NC(=O)NCCF)cc3F)nc(N3CCOCC3)c2C1` [Example 169, Methyl 2-(2-fluoro-4-(3-(2-fluoroethyl)ureido)phenyl)-4-morpholino-5H-pyrrolo[3,4-d]pyrimidine-6(7H)-carboxylate]: the IC50 on mTOR (setting [1]) is below 100 nM.

For `CCCNC(=O)Nc1ccc(-c2nc3c(c(N4CCOC[C@@H]4C)n2)CN(CC2CC2)C3)cc1` [Example 49, (S)-1-(4-(6-(cyclopropylmethyl)-4-(3-methylmorpholino)-6,7-dihydro-5H-pyrrolo[3,4-d]pyrimidin-2-yl)phenyl)-3-propylurea], the IC50 on mTOR (setting [2]) and at mTOR (setting [3]) was 100 to 1000 nM in each case.

As for `CC(C)NC(=O)Nc1ccc(-c2nc3c(c(N4CCOC[C@@H]4C)n2)CN(CC2CC2)C3)cc1` [Example 50, (S)-1-(4-(6-(cyclopropylmethyl)-4-(3-methylmorpholino)-6,7-dihydro-5H-pyrrolo[3,4-d]pyrimidin-2-yl)phenyl)-3-isopropylurea], the IC50 on mTOR (setting [2]) and on mTOR (setting [3]) was 100 to 1000 nM throughout.

In the case of `CCNC(=O)Nc1ccc(-c2nc3c(c(N4CCOC[C@@H]4C)n2)CN(C)C3)cc1` [Example 26, (S)-1-ethyl-3-(4-(6-methyl-4-(3-methylmorpholino)-6,7-dihydro-5H-pyrrolo[3,4-d]pyrimidin-2-yl)phenyl)urea], the IC50 at mTOR (setting [2]) and at mTOR (setting [3]) was below 100 nM throughout.

Regarding `C[C@H]1COCCN1c1nc(-c2ccc(NC(=O)NC3CC3)cc2)nc2c1CN(C)C2` [Example 38, (S)-1-cyclopropyl-3-(4-(6-methyl-4-(3-methylmorpholino)-6,7-dihydro-5H-pyrrolo[3,4-d]pyrimidin-2-yl)phenyl)urea], the IC50 at mTOR (setting [2]) and on mTOR (setting [3]) was below 100 nM throughout.

Consider `CCNC(=O)Nc1ccc(-c2nc3c(c(N4CCOC[C@@H]4C)n2)CCNC3)cc1` [Example 13, (S)-1-ethyl-3-(4-(4-(3-methylmorpholino)-5,6,7,8-tetrahydropyrido[3,4-d]pyrimidin-2yl)phenyl)urea], for which the IC50 at mTOR (setting [2]) and on mTOR (setting [3]) was below 100 nM in each case.

In the case of `CCNC(=O)Nc1ccc(-c2nc3c(c(N4CCOC[C@@H]4C)n2)CN(C(=O)C(C)(C)C)C3)cc1` [Example 22, (S)-1-ethyl-3-(4-(4-(3-methylmorpholino)-6-pivaloyl-6,7-dihydro-5H-pyrrolo[3,4-d]pyrimidin-2-yl)phenyl)urea], the IC50 on mTOR (setting [2]) and at mTOR (setting [3]) was 100 to 1000 nM each time.

Turning to `C[C@H]1COCCN1c1nc(-c2ccc(NC(N)=O)cc2)nc2c1CN(CC1CC1)C2` [Example 48, (S)-1-(4-(6-(cyclopropylmethyl)-4-(3-methylmorpholino)-6,7-dihydro-5H-pyrrolo[3,4-d]pyrimidin-2-yl)phenyl)urea], the IC50 on mTOR (setting [2]) and on mTOR (setting [3]) was 100 to 1000 nM each time.

Take `C[C@H]1COCCN1c1nc(-c2ccc(NC(=O)NC3CC3)cc2)nc2c1CN(CC1CC1)C2` [Example 30]: the IC50 at mTOR (setting [2]) and at mTOR (setting [3]) was below 100 nM in each case.

With `CCNC(=O)Nc1ccc(-c2nc3c(c(N4CCOC[C@@H]4C)n2)CN(C(C)=O)C3)cc1` [Example 18, (S)-1-(4-(6-acetyl-4-(3-methylmorpholino)-6,7-dihydro-5H-pyrrolo[3,4-d]pyrimidin-2-yl)phenyl)-3-ethylurea], the IC50 on mTOR (setting [2]) and on mTOR (setting [3]) was below 100 nM each time.

With `C[C@H]1COCCN1c1nc(-c2ccc(NC(=O)NC3CC3)cc2)nc2c1CNCC2` [Example 11, (S)-1-cyclopropyl-3-(4-(4-(3-methylmorpholino)-5,6,7,8-tetrahydropyrido[4,3-d]pyrimidin-2-yl)phenyl)urea], the IC50 at mTOR (setting [2]) and at mTOR (setting [3]) was 100 to 1000 nM each time.

Regarding `CNC(=O)Nc1ccc(-c2nc3c(c(N4CCOC[C@@H]4C)n2)CCNC3)cc1` [Example 16, (S)-1-methyl-3-(4-(4-(3-methylmorpholino)-5,6,7,8-tetrahydropyrido[3,4-d]pyrimidin-2-yl)phenyl)urea], the IC50 at mTOR (setting [2]) and on mTOR (setting [3]) was below 100 nM throughout.

`CC(C)C(=O)N1Cc2nc(-c3ccc(NC(=O)NC4CC4)cc3)nc(N3CCOC[C@@H]3C)c2C1` [Example 44, (S)-1-cyclopropyl-3-(4-(6-isobutyryl-4-(3-methylmorpholino)-6,7-dihydro-5H-pyrrolo[3,4-d]pyrimidin-2-yl)phenyl)urea]: the IC50 at mTOR (setting [2]) and on mTOR (setting [3]) was below 100 nM each time.

As to `CCNC(=O)Nc1ccc(-c2nc3c(c(N4CCOC[C@@H]4C)n2)CN(CC)C3)cc1` [Example 39, (S)-1-ethyl-3-(4-(6-ethyl-4-(3-methylmorpholino)-6,7-dihydro-5H-pyrrolo[3,4-d]pyrimidin-2-yl)phenyl)urea], the IC50 at mTOR (setting [2]) and at mTOR (setting [3]) was below 100 nM each time.

Consider `C[C@H]1COCCN1c1nc(-c2ccc(NC(=O)NC3CCC3)cc2)nc2c1CN(C)C2` [Example 55, (S)-1-cyclobutyl-3-(4-(6-methyl-4-(3-methylmorpholino)-6,7-dihydro-5H-pyrrolo[3,4-d]pyrimidin-2-yl)phenyl)urea], for which the IC50 at mTOR (setting [2]) and on mTOR (setting [3]) was 100 to 1000 nM throughout.

Turning to `CCNC(=O)Nc1ccc(-c2nc3c(c(N4CCOC[C@@H]4C)n2)CN(C=O)C3)cc1` [Example 8, (S)-1-ethyl-3-(4-(6-formyl-4-(3-methylmorpholino)-6,7-dihydro-5H-pyrrolo[3,4-d]pyrimidin-2-yl)phenyl)urea], the IC50 at mTOR (setting [2]) and at mTOR (setting [3]) was below 100 nM in each case.

Turning to `CC(C)N1Cc2nc(-c3ccc(NC(=O)NC4CC4)cc3)nc(N3CCOC[C@@H]3C)c2C1` [Example 46, (S)-1-cyclopropyl-3-(4-(6-isopropyl-4-(3-methylmorpholino)-6,7-dihydro-5H-pyrrolo[3,4-d]pyrimidin-2-yl)phenyl)urea], the IC50 at mTOR (setting [2]) and at mTOR (setting [3]) was below 100 nM in each case.

With `CC(=O)N1Cc2nc(-c3ccc(NC(=O)NC4CC4)cc3)nc(N3CCOC[C@@H]3C)c2C1` [Example 20, (S)-1-(4-(6-acetyl-4-(3-methylmorpholino)-6,7-dihydro-5H-pyrrolo[3,4-d]pyrimidin-2-yl)phenyl)-3-cyclopropylurea], the IC50 on mTOR (setting [2]) and at mTOR (setting [3]) was below 100 nM each time.

As to `C[C@H]1COCCN1c1nc(-c2ccc(NC(=O)NC3CC3)cc2)nc2c1CCNC2` [Example 15, (S)-1-cyclopropyl-3-(4-(4-(3-methylmorpholino)-5,6,7,8-tetrahydropyrido[3,4-d]pyrimidin-2-yl)phenyl)urea], the IC50 at mTOR (setting [2]) and on mTOR (setting [3]) was below 100 nM throughout.

Consider `CCNC(=O)N1Cc2nc(-c3ccc(NC(=O)NC4CC4)cc3)nc(N3CCOC[C@@H]3C)c2C1` [Example 33, (S)-2-(4-(3-cyclopropylureido)phenyl)-N-ethyl-4-(3-methylmorpholino)-5H-pyrrolo[3,4-d]pyrimidine-6(7H)-carboxamide], for which the IC50 at mTOR (setting [2]) and on mTOR (setting [3]) was below 100 nM throughout.

On to `CCN1Cc2nc(-c3ccc(NC(=O)NC4CC4)cc3)nc(N3CCOC[C@@H]3C)c2C1` [Example 36, (S)-1-cyclopropyl-3-(4-(6-ethyl-4-(3-methylmorpholino)-6,7-dihydro-5H-pyrrolo[3,4-d]pyrimidin-2-yl)phenyl)urea], for which the IC50 at mTOR (setting [2]) and at mTOR (setting [3]) was below 100 nM in each case.

In the case of `CCNC(=O)Nc1ccc(-c2nc3c(c(N4CCOC[C@@H]4C)n2)CNCC3)cc1` [Example 12, (S)-1-ethyl-3-(4-(4-(3-methylmorpholino)-5,6,7,8-tetrahydropyrido[4,3-d]pyrimidin-2-yl)phenyl)urea], the IC50 at mTOR (setting [2]) and on mTOR (setting [3]) was 100 to 1000 nM throughout.

Take `CCNC(=O)Nc1ccc(-c2nc3c(c(N4CCOC[C@@H]4C)n2)CN(S(C)(=O)=O)C3)cc1` [Example 32, (S)-1-ethyl-3-(4-(4-(3-methylmorpholino)-6-(methylsulfonyl)-6,7-dihydro-5H-pyrrolo[3,4-d]pyrimidin-2-yl)phenyl)urea]: the IC50 at mTOR (setting [2]) and on mTOR (setting [3]) was below 100 nM each time.

The record behind these values is patent publication US8785457B2 (Cellzome Limited, priority 2009, dated 2014).
